Results on two compounds are retold here after US8901337B2, “Metal complexes having dual histone deacetylase inhibitory and DNA-binding activity” (Royal College of Surgeons in Ireland, priority 2009, dated 2014).

The subject of test [1] is caspase-9 activation in A2780 P cells. Nature of the test: Caspase-9 assay, A2780 P. The format is cell-based, human. To be noted: 72 hr, IC50 and IC75, FIG. 22. The method, then:
(§1) Both floating and attached cells were collected by centrifugation. Cells, at a density of 1.5×10^6 cells/ml were washed with PBS and then re-suspended in chilled cell lysis buffer (supplied in the Caspase-3 colourimetric assay kit, Calbiochem, UK). Cells were incubated on ice for 10 min and then centrifuged for 1 min at 10,000 g. The cytosolic fraction (supernatant) was collected into a fresh tube and 50 μl (2 mg/ml) of each protein sample was transferred to a 96 well plate and diluted with lysis buffer. A 50 μl aliquot of X2 reaction buffer, containing 10 mM DTT was added, followed by 5 μl of 4 mM DEVD-pNA substrate to give a final concentration of 200 μM. The plate was then incubated at 37° C. for 1-2 h. OD was determined at 400 nm using an Anthos HT-II microtitreplate reader. The fold increase in caspase-3 and -9 activities was determined by comparing results to that obtained with un-induced control.

The subject of test [2] is caspase-9 activation in A2780 cisR cells. Nature of the test: Caspase-9 assay, A2780 cisR. To be noted: 72 hr, IC50 and IC75, FIG. 23. The test is classed as cell-based, human. The method, then: as §1
Test [3] concerns caspase-3 activation in A2780 P cells. Nature of the test: Caspase-3 colourimetric assay, A2780 P. The format is cell-based, human. The note with it: 72 hr, IC50 and IC75, FIG. 20. As for the experimental part:
as §1

Test [4] has as its system caspase-3 activation in A2780 cisR cells. The experiment in a line: Caspase-3 colourimetric assay, A2780 cisR. The test is classed as cell-based, human. To be noted: 72 hr, IC50 and IC75, FIG. 21. As for the experimental part:
as §1

The test system of test [5] is A2780 cisR cells. The experiment in a line: Inhibition of DNA synthesis, BrdU incorporation assay, A2780 cisR. To be noted: 72 hr, FIG. 19. The format is cell-based, human. The method, then: (§2) DNA synthesis was determined using 5-bromo-2-deoxyuridine (BrdU) colourimetric incorporation assay.^18 A2780 P and A2780 cisR cells were seeded into 96 well plates and allowed to adhere overnight. All test agents were added and incubated for 72 hr prior to the addition of BrdU (10 μM per well). Plates were then incubated at 37° C. for 4 h and incorporation was quantified by ELISA (Calbiochem).
(In general: Dividing cells build labelled thymidine or BrdU into new DNA.)

Test [6] deals with A2780 P cells. The experiment in a line: Inhibition of DNA synthesis, BrdU incorporation assay, A2780 P. The test is classed as cell-based, human. The note with it: 72 hr, FIG. 18. As for the experimental part:
as §2

Test [7] concerns the target T1, HDAC1 (Homo sapiens, UniProt Q13547).
T1 construct: purchased Cayman Chemicals, Ann Arbor, USA
Nature of the test: Cayman HDAC1 Inhibitor Screening Assay Kit (fluorescence). The test is classed as biochemical. As for the experimental part:
The assay provides a fast two-step fluorescence-based method for measuring HDAC activity. Briefly, in the first step an acetylated lysine residue was incubated with HDAC1 and potential inhibitors. Deacetylation sensitises the substrate so that treatment with the HDAC developer in the second step releases a fluorescent product. The fluorescent reaction product was analysed using a plate reader with an excitation wavelengths of 350 nm and emission wavelengths of 460 nm.

Test [8] deals with closed circular supercoiled pUC19 plasmid DNA. The experiment in a line: DNA unwinding, agarose gel mobility shift assay. The format is binding. To be noted: 37° C., 48 h, range of concentrations. As for the experimental part:
Platinum compounds, such as cisplatin, that unwind the DNA duplex reduces the number of supercoils in closed circular DNA so that their number decreases. This decrease upon binding of unwinding agents causes a decrease in the rate of migration of DNA through agarose gel. Unwinding of closed circular supercoiled pUC19 plasmid DNA incubated with cis-[Pt^II(NH3)2(malSAHA−2H)] was assayed by an agarose gel mobility shift assay. Samples of plasmid DNA were incubated with platinum complexes at 37° C. in the dark for 48 h. All samples were subjected to electrophoresis on 1% native agarose gel running at 25° C. with TAE buffer and the voltage set at 25 V. The gels were then stained with EtBr, followed by photography with transilluminator.^16

T1 sequence (Q13547 whole entry): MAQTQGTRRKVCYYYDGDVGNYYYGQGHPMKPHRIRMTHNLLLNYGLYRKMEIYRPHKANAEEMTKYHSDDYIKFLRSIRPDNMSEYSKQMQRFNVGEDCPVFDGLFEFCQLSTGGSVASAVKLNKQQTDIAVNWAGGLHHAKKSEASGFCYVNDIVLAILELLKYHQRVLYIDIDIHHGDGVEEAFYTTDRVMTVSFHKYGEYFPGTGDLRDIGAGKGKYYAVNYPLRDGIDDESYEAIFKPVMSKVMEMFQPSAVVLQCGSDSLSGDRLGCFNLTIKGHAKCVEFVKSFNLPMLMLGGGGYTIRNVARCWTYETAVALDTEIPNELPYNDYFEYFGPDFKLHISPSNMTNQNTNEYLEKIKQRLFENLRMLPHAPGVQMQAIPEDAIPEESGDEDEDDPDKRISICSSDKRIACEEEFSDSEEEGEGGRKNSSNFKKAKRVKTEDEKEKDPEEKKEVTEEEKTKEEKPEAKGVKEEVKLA

With `[NH2][Pt]1([NH2])[O]C(=O)C(Cc2ccc(NS(=O)(=O)c3ccc(/C=C/C(=O)NO)cc3)cc2)C(=O)[O]1` [cis-[Pt(NH3)2(malBel−2H)], cis-[Pt(NH3)2(malBel−2H)].1.5H2O], the caspase-9 activity result in test [1] was “an increase in both Caspase-3 and -9 activities”; in test [2], “an increase in both Caspase-3 and -9 activities”. Also, the caspase-3 activity result in test [3] was “an increase in both Caspase-3 and -9 activities”; in test [4], “an increase in both Caspase-3 and -9 activities”. The “effect on DNA synthesis, BrdU incorporation” value in test [5] and in test [6] was “dose-dependant decrease in DNA synthesis” each time.

On to `[NH2][Pt]1([NH2])[O]C(=O)C(Cc2ccc(NC(=O)CCCCCCC(=O)NO)cc2)C(=O)[O]1` [cis-[Pt(NH3)2(malSAHA−2H)], cis-[Pt(NH3)2(malSAHA−2H)].3H2O], for which the “inhibition of HDAC1 (in words)” value in test [7] is listed as “inhibit HDAC1”. Besides, the IC50 (as a rule, the concentration at which inhibition is half-maximal) in test [7] (read-out: IC50 against HDAC I at 200 μM, at 200 μM) worked out at 1140 nM. Further, the “unwinding of negatively supercoiled pUC19 plasmid DNA (DNA binding)” value in test [8] is on record as “can induce unwinding in negatively supercoiled pUC19 plasmid DNA”.
